Source: ChEMBL document CHEMBL4052616, “Isoniazid derivatives and their anti-tubercular activity” (Eur J Med Chem, 2017)
Converted amounts (≈) assume the structure as drawn.

What was measured:
[1] = test system: Mycobacterium tuberculosis; assay: Antimycobacterial activity against Mycobacterium tuberculosis Erdman ATCC 35801 by broth dilution method; type: functional
[2] = test system: Mycobacterium tuberculosis; assay: Potency index, ratio of isoniazid MIC to compound MIC for Mycobacterium tuberculosis clinical isolate 303; type: functional
[3] = test system: Mycobacterium tuberculosis; assay: Antimycobacterial activity against Mycobacterium tuberculosis infected in C57BL/6 mouse assessed as reduction in colony forming units per lung at 100 mg/kg administered via gavage for 2 days measured last post dose; type: functional
[4] = test system: Mycobacterium tuberculosis; assay: Antimycobacterial activity against Mycobacterium tuberculosis clinical isolate 303 by broth dilution method; type: functional
[5] = test system: Mycobacterium tuberculosis; assay: Antimycobacterial activity against Mycobacterium tuberculosis clinical isolate 1889 by broth dilution method; type: functional
[6] = test system: Mycobacterium tuberculosis; assay: Antimycobacterial activity against Mycobacterium tuberculosis clinical isolate 35829 by broth dilution method; type: functional
[7] = test system: Mycobacterium tuberculosis; assay: Potency index, ratio of isoniazid MIC to compound MIC for Mycobacterium tuberculosis clinical isolate 1889; type: functional
[8] = test system: Mycobacterium tuberculosis; assay: Potency index, ratio of isoniazid MIC to compound MIC for Mycobacterium tuberculosis clinical isolate 35829; type: functional
[9] = test system: Mycobacterium tuberculosis; assay: Antimycobacterial activity against Mycobacterium tuberculosis H37Rv ATCC 27294 measured after 5 to 8 days; type: functional
[10] = test system: Mycobacterium tuberculosis; assay: Growth inhibition of Mycobacterium tuberculosis H37Rv ATCC 27294 measured after 5 to 8 days; type: functional
[11] = test system: Mycobacterium tuberculosis; assay: Antimycobacterial activity against Mycobacterium tuberculosis H37Rv after 5 days by microplate alamar blue assay; type: functional; conditions: 120 h
[12] = test system: Mycobacterium tuberculosis; assay: Antitubercular activity against Mycobacterium tuberculosis H37Rv; type: functional
[13] = Inhibition of DNA gyrase (unknown origin)
[14] = test system: Mycobacterium tuberculosis; assay: Antimycobacterial activity against Mycobacterium tuberculosis H37Rv by NCCLS method; type: functional
[15] = test system: Mycobacterium tuberculosis; assay: Potency index, ratio of pyrazinamide MIC to compound MIC for Mycobacterium tuberculosis H37Rv; type: functional
[16] = test system: Mycobacterium tuberculosis; assay: Antitubercular activity against Mycobacterium tuberculosis H37Rv after 10 days by tube dilution method; type: functional; conditions: 240 h
[17] = test system: Mycobacterium tuberculosis; assay: Antimycobacterial activity against Mycobacterium tuberculosis H37Rv ATCC 27294 at < 0.1 ug/mL by microplate alamar blue assay; type: functional
Mycobacterium avium = assay: Antimycobacterial activity against Mycobacterium avium 330/88 measured after 14 to 21 days by micromethod; type: functional
[18] = test system: Mycobacterium tuberculosis; assay: Antimycobacterial activity against Mycobacterium tuberculosis 331/88 after 14 to 21 days by micromethod; type: functional
[19] = test system: Mycobacterium tuberculosis; assay: Antimycobacterial activity against Mycobacterium tuberculosis H37Rv after 10 to 12 days by serial dilution method; type: functional
[20] = test system: Mycobacterium tuberculosis; assay: Antimycobacterial activity against Bovin sensitive Mycobacterium tuberculosis measured after six weeks; type: functional
[21] = test system: Mycobacterium tuberculosis; assay: Antimycobacterial activity against human sensitive Mycobacterium tuberculosis measured after six weeks; type: functional

Cc1ccc(C)n1NC(=O)c1ccccc1
MIC [1]: 3.2 µg/mL (≈ 14.9 µM) | Ratio [2]: 2 | Activity [3]: 1.5 log10CFU | MIC [4]: 4 to 8 µg/mL (≈ 18.7 to 37.3 µM) | MIC [5]: 4 to 8 µg/mL (≈ 18.7 to 37.3 µM) | MIC [6]: 4 to 8 µg/mL (≈ 18.7 to 37.3 µM) | Ratio [7]: 2 | Ratio [8]: 2

CCn1cc(C(=O)O)c(=O)c2cc(F)c(N3CCN(CN4C(=O)/C(=N\NC(=O)c5ccncc5)c5cc(Cl)ccc54)CC3)cc21
MIC [9]: 6.25 to 12.5 µg/mL (≈ 9.89 to 19.8 µM) | growth inhibition (GI) [10]: 99%

O=C(NN1C(=O)C(Cl)C1c1ccccc1O)c1ccncc1 (centres undefined)
MIC [11]: 0.62 µg/mL (≈ 1.95 µM)

COc1cc(C2C(Cl)C(=O)N2NC(=O)c2ccncc2)ccc1O (centres undefined)
MIC [11]: 0.31 µg/mL (≈ 0.891 µM)

O=C(NN1C(=O)C(Cl)C1c1ccc([N+](=O)[O-])cc1)c1ccncc1 (centres undefined)
MIC [11]: 5 µg/mL (≈ 14.4 µM)

O=C(NN1C(=O)C(Cl)C1c1cc2cc(Br)ccc2nc1Cl)c1ccncc1 (centres undefined)
MIC [12]: 12.5 µg/mL

C/C(=N\NC(=O)c1ccncc1)c1ccc(N)cc1
MIC [12]: 0.23 µM

COc1c(N2CCN(CN3C(=O)/C(=N\NC(=O)c4ccncc4)c4ccccc43)C(C)C2)c(F)cc2c(=O)c(C(=O)O)cn(C3CC3)c12 (centres undefined)
MIC [12]: 0.2 µg/mL | IC50 [13]: 4 µg/mL (≈ 6.12 µM)

Cc1c(C(=O)NNC(=O)c2ccncc2)nn(-c2ccc(Cl)cc2Cl)c1-c1ccccc1
MIC [14]: 25 µg/mL (≈ 53.6 µM) | Ratio [15]: 4

COc1nc2ccccc2cc1C1C(Cl)C(=O)N1NC(=O)c1ccncc1 (centres undefined)
MIC [12]: 3.12 to 6.25 µg/mL

CCC(CO)Nc1nc(Cl)nc(NNC(=O)c2ccncc2)n1 (centres undefined)
MIC [16]: 20 µg/mL (≈ 59.2 µM)

C[C@]12CC/C(=N\NC(=O)c3ccncc3)C[C@@H]1CC[C@@H]1[C@@H]2CC[C@]2(C)/C(=N/NC(=O)c3ccncc3)CC[C@@H]12
inhibition (INH) [17]: >95%

CCCCCCCCc1ccc(NC(=O)NNC(=O)c2ccncc2)cc1
MIC (Mycobacterium avium): 1 to 2 µM (≈ 0.368 to 0.737 µg/mL) | MIC [18]: 1 to 2 µM (≈ 0.368 to 0.737 µg/mL)

C[C@]12CC[C@H]3[C@@](CC[C@@H]4[C@]3(C)CCC[C@@]4(C)C(=O)O)(CC1=O)C2
MIC [19]: 50 µg/mL (≈ 157 µM)

COc1ccc(C2C(Cl)C(=O)N2NC(=O)c2ccncc2)cc1 (centres undefined)
MIC [11]: 0.31 to 5 µg/mL (≈ 0.934 to 15.1 µM)

C=CCN1C(=O)/C(=N\NC(=O)c2ccncc2)c2ccccc21
MIC [20]: 2.7 to 3.5 µg/mL (≈ 8.81 to 11.4 µM) | MIC [21]: 2.7 to 3.5 µg/mL (≈ 8.81 to 11.4 µM)

C=C1C[C@]23CC[C@@H]4[C@](C)(CCC[C@@]4(C)C(=O)NNc4ccncc4)[C@H]2CC[C@]1(O[C@@H]1O[C@H](COC(C)=O)[C@@H](OC(C)=O)[C@H](OC(C)=O)[C@H]1O[C@@H]1O[C@H](COC(C)=O)[C@@H](OC(C)=O)[C@H](OC(C)=O)[C@H]1O)C3
MIC [19]: 5 µg/mL (≈ 5.07 µM)

COc1nc2ccc(Br)cc2cc1C1C(Cl)C(=O)N1NC(=O)c1ccncc1 (centres undefined)
MIC [12]: 3.12 to 6.25 µg/mL

O=C(NN1C(=O)C(Cl)C1c1ccco1)c1ccncc1 (centres undefined)
MIC [11]: 1.25 µg/mL (≈ 4.29 µM)

O=C(NN1C(=O)C(Cl)C1c1cc2cc(Cl)ccc2nc1Cl)c1ccncc1 (centres undefined)
MIC [12]: 12.5 µg/mL

O=C(CNNC(=O)c1ccncc1)COc1ccc(/C=C2\SC(=O)NC2=O)cc1
MIC [12]: 50 to 100 µg/mL

C=C1C[C@]23CC[C@@H]4[C@](C)(CCC[C@@]4(C)C(=O)O[C@@H]4O[C@H](CO)[C@@H](O)[C@H](O)[C@H]4O)[C@H]2CC[C@]1(O[C@@H]1O[C@H](CO)[C@@H](O)[C@H](O)[C@H]1O[C@@H]1O[C@H](CO)[C@@H](O)[C@H](O)[C@H]1O)C3
MIC [19]: 7.5 µg/mL (≈ 9.32 µM)
